What was measured:
[1] = Bulk/tapped density (USP Test 616), compressibility index and particle size distribution of repaglinide; assay type: physicochemical
From the text: The percentages of particles with different sizes that exist in a total powder is the particle size distribution. It is represented in certain ways. Particle size is the maximum dimension of a particle, frequently expressed in μm. Particle size distributions can be expressed in terms of, D10, D50, D90 and D[4,3]. The D10, D50 and D90 represent the 10th, median or the 50th percentile, and the 90th percentile of the particle size distribution, respectively, as measured by volume. That is, the D10, D50, D90 are values of the distribution such that 10%, 50%, or 90% of the particles have a volume of this value or less, or is the percentage of particles smaller than that size. D50 is also known as median diameter of particle. It is one of the important parameters representing characteristics of particles of powders. For a sample, if D50=5 μm, it means that 50% of the particles are smaller than 5 μm. Similarly if D10=5 μm, 10% of the particles are less than or equal to 5 μm, and if D90=5 μm, 90% of the particles have sizes less than or equal to 5 μm. D[4,3] represents the volume moment mean of the particles, or the volume weighted particle size. Densities were determined according to USP Test 616 “Bulk Density and Tapped Density,” and compressibility index is percentage change in volume induced by tapping a sample of fixed mass.

[2] = cited from earlier work

- Particle size distribution D10 [1]: 2 μm
- Particle size distribution D50 [1]: <4 μm
- Particle size distribution D90 [1]: <7 μm
- Bulk density ([1]; USP Test 616): 0.176 g/mL
- Tapped density ([1]; USP Test 616): 0.247 g/mL
- Compressibility index ([1]; percentage change in volume induced by tapping): 29.95
Structure (SMILES): CCOc1cc(CC(=O)N[C@@H](CC(C)C)c2ccccc2N2CCCCC2)ccc1C(=O)O [Repaglinide, S-(+)-2-Ethoxy-4-(2((3-methyl-1-(2-(1-piperidinyl)phenyl)butyl)amino)2-oxoethyl) benzoic acid]
- solubility in methanol ([2]; methanol): freely soluble
- solubility in methylene chloride ([2]; methylene chloride): freely soluble
- solubility in water ([2]; water): practically insoluble
